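Tested at 5 concentrations; 48 h exposure; 96-well plates; endpoints linearly interpolated, else capped at highest concentration. GI50 marks 50% less growth. TGI denotes the concentration required for complete inhibition of growth.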 The source made the active and inactive calls. Cut-off read from the data, not from the text of the source: active = GI50 below about 0.43 µM; inactive = the rest.
What follows are compounds tested on MDA-MB-468 breast (assay: inhibition of tumour cell growth, NCI panel, 48 h).
Work on `C#Cc1cccc(NC(=O)Nc2cccc(NC(=O)CCl)c2)c1` yielded a GI50 of 19400 nM and a TGI of 78700 nM.
`CC(=O)OC1C(OC/C2=C/C3[C@@H](C(C)C)CC=C(C)[C@@H]3CC(OC(=O)/C=C/c3cn(C)cn3)[C@]3(C)C=C[C@@]2(O)O3)OCC(O)C1O` (stereo partly specified) was tested, and the GI50 was 10.8 nM and the TGI was 98.8 nM.
Work on `Cn1c([N+](=O)[O-])cnc1/C=C1\Oc2ccc(Cl)cc2C1=O` yielded a GI50 of 1920 nM and a TGI of 4790 nM.
`Cc1cc(N2CCOCC2)nc(N(CCNc2ccnc3cc(Cl)ccc23)Cc2cccs2)n1` gave a GI50 of 2110 nM and a TGI of 5080 nM.
`Cn1cnc2nc(Cl)nc(Cl)c21` showed a GI50 of 3680 nM and a TGI of 18700 nM.
In the case of `N#CC1=C(N)Oc2c(ccc3ccccc23)C1c1ccccc1Cl` (stereo unspecified), the GI50 is reported as 466 nM and the TGI is reported as 20700 nM.
`Cn1cc(C2=C(c3cn(CCCSC(=N)N)c4ccccc34)C(=O)NC2=O)c2ccccc21` gave a GI50 of 569 nM and a TGI of 1900 nM.
`CCCCc1ccc(C(N)=O)nc1` showed a GI50 greater than 100000 nM and a TGI greater than 100000 nM.
`O=C1/C(=C/c2ccc([N+](=O)[O-])s2)Oc2ccc(Cl)cc21` showed a GI50 of 440 nM and a TGI of 1560 nM.
With `CC1SC(c2cccc(Oc3ccccc3)c2)N(CCc2cccs2)C1=O` (stereo unspecified) the GI50 was 745 nM and the TGI was 2910 nM.
In the case of `CNCc1ccc(C)c(NC(=O)c2ccc(Nc3nc(-c4ccccc4)c4ccccc4n3)cc2)c1`, the GI50 is reported as 1610 nM and the TGI is reported as 3130 nM.
`CCOC(=O)C(Cc1ccc(N(CCCl)CCCl)cc1)NC(=O)C(CC(C)C)NC(C)=O` (stereo unspecified) gave a GI50 of 426 nM and a TGI of 2180 nM.
Compound `Oc1ccc(-c2nc(-c3ccc4oc5ccc(-c6[nH]c(-c7ccc(O)cc7)nc6-c6ccccc6)cc5c4c3)c(-c3ccccc3)[nH]2)cc1` has a GI50 of 6650 nM and a TGI of 88500 nM.
`C=C1C(=O)O[C@H]2[C@H]1CC/C(Cn1cc(CNC(=O)c3cc4ccccc4[nH]3)nn1)=C\CC[C@@]1(C)O[C@@H]21` showed a GI50 of 1450 nM and a TGI of 3660 nM.
Compound `Oc1c(Br)cc(Br)c2cccnc12` has a GI50 of 2430 nM and a TGI of 7530 nM.
`COc1ccc(N2CCN(CC(=O)N3CCN(c4nnc(-c5ccc(Cl)cc5)c(-c5ccc(Cl)cc5)n4)CC3)CC2)cc1` was tested, and the GI50 was 11500 nM and the TGI was 45500 nM.
For `COc1cc(C2C3=C(COC3=O)N(CCO)c3cc4c(cc32)CCC4)cc(OC)c1OC` (stereo unspecified), the GI50 was 61.7 nM and the TGI was 151 nM.
Compound `COc1ccc(C2CC(c3ccc(OC)c(OC)c3)=NN2C(=O)c2cc(OC)c(OC)c(OC)c2)cc1` (stereo unspecified) has a GI50 of 575 nM and a TGI of 5210 nM.
For `CCOC(=O)c1ccccc1NC(c1ccccc1)c1ccc2cccnc2c1O` (stereo unspecified), the GI50 was 2450 nM and the TGI was 6860 nM.
Compound `Cc1nc2cc(NC(=O)CN3CCN(CCN4C(=O)c5cccc6cccc(c56)C4=O)CC3)ccc2s1` has a GI50 of 3630 nM and a TGI of 16600 nM.
`CCC(CC)N1C(=O)/C(=c2\sc3n(c2=O)C2C(NN=3)N(CC)C(=O)N2CC)c2ccccc21` (stereo unspecified) gave a GI50 of 489 nM and a TGI of 27000 nM.
`O=C(/C=C/CN1CCCCC1)Nc1cc2c(Nc3ccc(F)c(Cl)c3F)ncnc2cc1OCCOC(F)F` gave a GI50 of less than 10 nM and a TGI of 11.8 nM.
Work on `Cc1nn(-c2ccccc2)c2ncc3c(c12)C(=O)N(Cc1ccccc1)C3=O` yielded a GI50 of 9210 nM and a TGI greater than 100000 nM.
`O=C(/C=C\c1ccc(Cl)c(Cl)c1)c1ccccc1` was tested, and the GI50 was 14300 nM and the TGI was 36900 nM.
With `COc1ccc(/C=C2\CN(Cc3cn(CCCNc4ccnc5cc(Cl)ccc45)nn3)C/C(=C\c3ccc(OC)cc3)C2=O)cc1` the GI50 was 11900 nM and the TGI was 26200 nM.
For `CC(CCC/C=C/CCCN(C)C(=N)N)CC(C)C1OC(=O)C(C)C(O)/C=C/C(C)C(O)C(C)C(O)C(C)C(O)CCCC(O)CC2(O)OC(CC(OC(=O)CC(=O)O)CC(O)CC(O)C(C)C(O)/C=C/C=C/C1C)CC(O)C2O` (stereo unspecified), the GI50 was 1770 nM, the TGI was 3290 nM and the outcome was “inactive”.
In the case of `CCS(=O)(=O)Nc1ccc(Oc2ccc(F)cc2F)c(-c2cn(C)c(=O)c3[nH]ccc23)c1`, the GI50 is reported as 51.2 nM and the TGI is reported as 5010 nM.
Compound `COc1ccc(/C(C)=C(\c2ccc(Cl)cc2)c2ccc(OCCN3CCCCC3)cc2)cc1F` has a GI50 of 2490 nM and a TGI of 5620 nM.
With `CCN(CC)CCC(CNc1c2ccc(Cl)cc2nc2ccc(OC)cc12)c1ccccc1` (stereo unspecified) the GI50 was 1570 nM and the TGI was 3010 nM.
Compound `CN1CCN(Cc2ccc(NC(=O)c3cncc(C#Cc4c(N)ncc5ccc(F)cc45)c3)cc2C(F)(F)F)CC1` has a GI50 of 4190 nM and a TGI of 12300 nM.
`C=CC(=O)N1CC[C@@H](Oc2nc(Nc3ccc(N4CCC(N5CCN(C)CC5)CC4)cc3)c(C(N)=O)nc2CC)C1` was tested, and the GI50 was greater than 100000 nM and the TGI was greater than 100000 nM.
In the case of `COc1ccc(C2CC(c3cccc(Nc4ccnc5cc(Cl)ccc45)c3)=NN2c2ccc(Cl)cc2)cc1` (stereo unspecified), the GI50 is reported as 4450 nM and the TGI is reported as 40300 nM.
`CN(C)CCCn1c2c(c3ccncc3c1=O)C(=O)c1ccccc1-2` gave a GI50 of 461 nM and a TGI of 3020 nM.
In the case of `COc1c(C)cnc(Cn2cnc3c(Cl)nc(N)nc32)c1C`, the GI50 is reported as 169 nM and the TGI is reported as 1530 nM.
Work on `CCCCCCn1c(=N)n(CC(O)COc2cccc(C)c2)c2ccccc21` (stereo unspecified) yielded a GI50 of 1710 nM and a TGI of 3540 nM.
Compound `COC(=O)[C@@H](C)C[C@H](Cc1ccccc1)NC(=O)c1cccc([C@@H](C[C@H](C(C)C)N(C)C(=O)[C@@H](NC(=O)[C@H]2CCCCN2C)C(C)C)OC(C)=O)n1` has a GI50 of less than 1.67 nM and a TGI of 143 nM.
`Cc1cccc(NC(=O)c2sc3nc4c(cc3c2N)CCC4)c1C` showed a GI50 of 196 nM and a TGI of 685 nM.
With `Cc1cc(F)cc(NS(=O)(=O)c2ccc(-c3cnc(C4CC4)o3)cc2)c1` the GI50 was 79 nM and the TGI was 2420 nM.
In the case of `COc1cc2c(cc1Nc1nc(Nc3ccsc3C(N)=O)c3cc[nH]c3n1)N(C(=O)CN(C)C)CCC2`, the GI50 is reported as 82.7 nM and the TGI is reported as 947 nM.
In the case of `CCN(CC)CCCC(C)NC(=S)N/N=C(\C)c1ccccn1` (stereo unspecified), the GI50 is reported as 1890 nM and the TGI is reported as 5650 nM.

Reference: PubChem BioAssay (NCI)
